From PMC6337383, “Discovery of Potent Inhibitors for the Large Neutral Amino Acid Transporter 1 (LAT1) by Structure-Based Methods” (International Journal of Molecular Sciences, 2018)
Like-named read-outs stand apart in the source and are kept apart here.

Experiments:
recombinant human LAT1 [1] = molecular target: T1, recombinant human LAT1 (Homo sapiens, UniProt Q01650); details: same test system, determined previously; cited from earlier work
T1 construct: made in house; host or cells: E. coli
T1 sequence (Q01650 whole entry): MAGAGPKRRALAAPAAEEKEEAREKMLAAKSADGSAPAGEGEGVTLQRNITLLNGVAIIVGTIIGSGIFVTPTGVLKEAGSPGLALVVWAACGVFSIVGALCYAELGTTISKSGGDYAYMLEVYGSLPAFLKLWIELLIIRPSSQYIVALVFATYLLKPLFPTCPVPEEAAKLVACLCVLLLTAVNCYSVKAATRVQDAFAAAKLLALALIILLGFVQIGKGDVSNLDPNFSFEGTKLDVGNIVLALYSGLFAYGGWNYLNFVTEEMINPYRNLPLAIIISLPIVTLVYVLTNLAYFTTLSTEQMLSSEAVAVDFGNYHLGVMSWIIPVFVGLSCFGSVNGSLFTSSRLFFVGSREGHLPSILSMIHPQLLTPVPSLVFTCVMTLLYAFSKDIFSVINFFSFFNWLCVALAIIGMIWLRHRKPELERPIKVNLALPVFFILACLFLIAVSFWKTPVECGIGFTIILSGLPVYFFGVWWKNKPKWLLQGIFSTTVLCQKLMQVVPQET

cancer growth = test system: cancer growth; design: method as in PMID 21187458, PMID 18520037, PMID 18813831; details: cited from earlier work
recombinant human LAT1 [2] = molecular target: T1, recombinant human LAT1; assay: Inhibition of LAT1 mediated [3H]-His transport in proteoliposomes reconstituted with recombinant purified human LAT1; type: biochemical; details: 100 µM concentration, n = 3, Table S6
Experimental: All 30 compounds were evaluated for their potency to inhibit LAT1 mediated histidine transport in proteoliposomes reconstituted with recombinant purified human LAT1 (see Methods). […]
Human LAT1 was over-expressed in E. coli and was purified as previously described. In brief, solubilized cell lysate was centrifuged (12,000× g, 10 min, 4 °C); supernatant was applied on a His-Trap HP column (5 mL Ni Sepharose) connected to ÄKTA start system. The column was equilibrated with 10 mL buffer (20 mM Tris HCl pH 8.0, 10% glycerol, 200 mM NaCl, 0.1% sarkosyl) prior to supernatant application. The column was washed with 10 mL buffer (20 mM Tris HCl pH 8.0, 10% glycerol, 200 mM NaCl, 0.05% DDM, and 2 mM DTE) and the protein was eluted with the same buffer plus 400 mM imidazole. Purified protein was desalted, in order to remove imidazole, using a PD-10 column in a buffer containing 20 mM Tris HCl pH 8.0, 10% glycerol, 0.05% DDM and 10 mM DTE.
The purified human LAT1 was reconstituted by detergent removal approach using the batch-wise method, as previously described. In brief, the initial mixture contained: 4 μg of purified protein, 100 μL of 10% C12E8, 100 μL of 10% egg yolk phospholipids (w/v) in the form of liposomes that were prepared as previously described, 20 mM Tris HCl pH 7.5, and 10 mM L-His in a final volume of 700 μL. This mixture was incubated with 0.5 g of Amberlite XAD-4 for 90 min at 23 °C, 1200 rpm to retain detergent.
To perform transport assays, the external substrate was removed by gel filtration chromatography: 600 μL of proteoliposomes were passed through a Sephadex G-75 column (0.7 cm diameter × 15 cm height) pre-equilibrated with 20 mM Tris HCl pH 7.5 and a concentration of sucrose to balance internal osmolarity. Transport was started adding 5 μM [^3H]-His to proteoliposomes and stopped after 30 min according to the stop inhibitor method, as previously described. In brief, in controls 1.5 µM HgCl2 was added at time zero and radioactivity was subtracted to samples for calculating net transport. After stopping the transport reaction, 100 μL of proteoliposomes was subjected to gel filtration chromatography using a Sephadex G-75 column (0.6 cm diameter × 8 cm height), to separate the external from the internal radioactivity. Proteoliposomes were eluted with 1 mL 50 mM NaCl in 4 mL scintillation mixture and counted. […] Protein concentration was estimated by Chemidoc imaging system1 [104] to calculate the human LAT1 specific activity.

LAT1 [3] = details: S2 cells; cited from earlier work
LAT1 [4] = details: human colon cancer (HT-29) cells; cited from earlier work

Compound	IC50 (recombinant human LAT1 [1])	concentration required to attain antiproliferative effects (cancer growth)	% Residual Activity (recombinant human LAT1 [2])	IC50 (LAT1 [3])	IC50 (LAT1 [4])
NC1(C(=O)O)CC2CCC1C2 (centres unmarked) [Compound 1, 2-Amino-2-norbornanecarboxylic acid]	6800 ± 270 nM	> 10 mM	6.1%	–	–
Nc1cc(COc2c(Cl)cc(C[C@H](N)C(=O)O)cc2Cl)c2oc(-c3ccccc3)nc2c1 [Compound 2]	–	–	–	140 nM	60 nM
